Experimental data reported in US12479847B2 (DANA-FARBER CANCER INSTITUTE, INC., priority 2019, dated 2025).

Assays:
Assay in all cases: KINOMEscan (ScanMAX) kinase profiling
Format in all cases: binding
panel of 468 kinases [1] = biological target: T1, panel of 468 kinases (Homo sapiens, UniProt Q2M2I8); details: AAK1; 1 μM; read-out: % control
T1 construct: purchased KINOMEscan (ScanMAX) service

panel of 468 kinases [2] = biological target: T2, panel of 468 kinases (Homo sapiens, UniProt Q9NRH2); details: SNRK; 1 μM; read-out: % control
T2 construct: purchased KINOMEscan (ScanMAX) service
T2 sequence (Q9NRH2 1-765): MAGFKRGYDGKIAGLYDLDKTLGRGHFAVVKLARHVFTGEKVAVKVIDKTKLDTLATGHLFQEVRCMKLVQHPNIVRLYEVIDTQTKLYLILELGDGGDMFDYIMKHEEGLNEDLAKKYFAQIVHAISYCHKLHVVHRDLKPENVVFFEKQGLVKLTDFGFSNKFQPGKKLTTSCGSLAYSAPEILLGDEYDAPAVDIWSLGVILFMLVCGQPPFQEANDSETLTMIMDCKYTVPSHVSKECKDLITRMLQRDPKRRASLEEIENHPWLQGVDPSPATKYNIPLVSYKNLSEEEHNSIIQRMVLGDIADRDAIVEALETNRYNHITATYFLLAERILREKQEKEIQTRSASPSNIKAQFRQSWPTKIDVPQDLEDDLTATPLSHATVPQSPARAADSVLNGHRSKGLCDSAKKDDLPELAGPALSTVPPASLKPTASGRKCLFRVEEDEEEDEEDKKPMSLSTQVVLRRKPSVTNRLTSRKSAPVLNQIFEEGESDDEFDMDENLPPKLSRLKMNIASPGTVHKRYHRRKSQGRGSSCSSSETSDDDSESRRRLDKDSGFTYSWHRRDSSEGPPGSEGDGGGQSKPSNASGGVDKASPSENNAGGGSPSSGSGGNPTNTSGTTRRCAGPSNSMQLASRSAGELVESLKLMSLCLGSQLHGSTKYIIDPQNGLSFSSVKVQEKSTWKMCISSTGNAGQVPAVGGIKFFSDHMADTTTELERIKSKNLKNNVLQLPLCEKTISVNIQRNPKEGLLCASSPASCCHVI

panel of 468 kinases [3] = biological target: T3, panel of 468 kinases (Homo sapiens, UniProt Q9NYL2); details: ZAK; 1 μM; read-out: % control
T3 construct: purchased KINOMEscan (ScanMAX) service

panel of 468 kinases [4] = biological target: T4, panel of 468 kinases (Homo sapiens, UniProt Q9NSY1); details: BIKE; 1 μM; read-out: % control
T4 construct: purchased KINOMEscan (ScanMAX) service

panel of 468 kinases [5] = biological target: T5, panel of 468 kinases (Homo sapiens, UniProt Q8WTQ7); details: GRK7; 1 μM; read-out: % control
T5 construct: purchased KINOMEscan (ScanMAX) service
T5 sequence (Q8WTQ7 1-553): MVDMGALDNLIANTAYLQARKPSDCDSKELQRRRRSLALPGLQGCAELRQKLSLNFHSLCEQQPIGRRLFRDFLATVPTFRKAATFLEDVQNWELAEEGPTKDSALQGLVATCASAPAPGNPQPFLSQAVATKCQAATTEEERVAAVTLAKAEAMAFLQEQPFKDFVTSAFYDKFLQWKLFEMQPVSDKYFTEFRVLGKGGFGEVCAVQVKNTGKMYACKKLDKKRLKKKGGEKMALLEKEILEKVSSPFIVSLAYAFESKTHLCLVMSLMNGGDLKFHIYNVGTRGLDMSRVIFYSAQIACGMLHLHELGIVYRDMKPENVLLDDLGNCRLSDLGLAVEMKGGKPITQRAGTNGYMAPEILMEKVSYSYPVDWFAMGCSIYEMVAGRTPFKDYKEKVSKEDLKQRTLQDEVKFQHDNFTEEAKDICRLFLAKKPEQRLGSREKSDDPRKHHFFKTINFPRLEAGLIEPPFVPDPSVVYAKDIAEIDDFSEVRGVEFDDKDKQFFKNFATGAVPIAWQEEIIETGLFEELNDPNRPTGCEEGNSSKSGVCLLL

panel of 468 kinases [6] = biological target: T6, panel of 468 kinases (Homo sapiens, UniProt P10721, D816V); details: KIT(D816V); 1 μM; read-out: % control
T6 construct: purchased KINOMEscan (ScanMAX) service

panel of 468 kinases [7] = biological target: T7, panel of 468 kinases (Homo sapiens, UniProt Q13882); details: BRK; 1 μM; read-out: % control
T7 construct: purchased KINOMEscan (ScanMAX) service

panel of 468 kinases [8] = biological target: T8, panel of 468 kinases (Homo sapiens, UniProt P19525); details: PRKR; 1 μM; read-out: % control
T8 construct: purchased KINOMEscan (ScanMAX) service

panel of 468 kinases [9] = biological target: T9, panel of 468 kinases (Homo sapiens, UniProt P42336, E545A); details: PIK3CA(E545A); 1 μM; read-out: % control
T9 construct: purchased KINOMEscan (ScanMAX) service

T8 sequence (P19525 whole entry): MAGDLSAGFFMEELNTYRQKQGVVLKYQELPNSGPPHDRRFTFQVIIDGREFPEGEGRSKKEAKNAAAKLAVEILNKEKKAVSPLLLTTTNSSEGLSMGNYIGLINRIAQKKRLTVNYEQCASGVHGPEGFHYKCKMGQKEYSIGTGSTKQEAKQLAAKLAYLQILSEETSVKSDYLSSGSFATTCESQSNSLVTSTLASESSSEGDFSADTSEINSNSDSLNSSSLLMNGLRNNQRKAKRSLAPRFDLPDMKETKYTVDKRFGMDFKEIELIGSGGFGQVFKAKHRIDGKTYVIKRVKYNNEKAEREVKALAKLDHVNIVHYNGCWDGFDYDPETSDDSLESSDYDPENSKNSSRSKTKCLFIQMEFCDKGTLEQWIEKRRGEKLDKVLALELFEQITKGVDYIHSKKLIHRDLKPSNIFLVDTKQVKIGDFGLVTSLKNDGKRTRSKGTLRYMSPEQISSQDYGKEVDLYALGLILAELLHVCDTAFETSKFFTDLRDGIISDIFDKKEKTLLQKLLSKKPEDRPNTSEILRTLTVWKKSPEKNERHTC
T3 sequence (Q9NYL2 whole entry): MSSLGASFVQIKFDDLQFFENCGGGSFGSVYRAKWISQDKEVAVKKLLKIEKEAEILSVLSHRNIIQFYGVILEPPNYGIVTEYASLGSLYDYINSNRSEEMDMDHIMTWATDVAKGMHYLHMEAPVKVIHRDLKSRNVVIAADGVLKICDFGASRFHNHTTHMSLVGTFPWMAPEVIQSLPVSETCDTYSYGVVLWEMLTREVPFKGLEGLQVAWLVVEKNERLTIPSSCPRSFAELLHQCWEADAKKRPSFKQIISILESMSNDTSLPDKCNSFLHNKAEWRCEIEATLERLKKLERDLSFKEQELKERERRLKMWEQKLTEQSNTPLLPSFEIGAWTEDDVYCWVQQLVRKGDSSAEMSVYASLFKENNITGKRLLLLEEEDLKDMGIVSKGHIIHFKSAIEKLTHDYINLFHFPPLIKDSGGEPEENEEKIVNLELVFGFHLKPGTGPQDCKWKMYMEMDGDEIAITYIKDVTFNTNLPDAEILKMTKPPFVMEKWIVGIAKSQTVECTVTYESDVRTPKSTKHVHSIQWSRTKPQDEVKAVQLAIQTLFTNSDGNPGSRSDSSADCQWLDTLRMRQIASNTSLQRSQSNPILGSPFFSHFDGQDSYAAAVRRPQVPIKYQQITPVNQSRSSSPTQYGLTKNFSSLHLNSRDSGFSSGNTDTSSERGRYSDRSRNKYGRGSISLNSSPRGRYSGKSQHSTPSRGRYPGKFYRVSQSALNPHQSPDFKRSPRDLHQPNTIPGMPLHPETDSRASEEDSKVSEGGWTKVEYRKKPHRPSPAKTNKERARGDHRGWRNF
T4 sequence (Q9NSY1 whole entry): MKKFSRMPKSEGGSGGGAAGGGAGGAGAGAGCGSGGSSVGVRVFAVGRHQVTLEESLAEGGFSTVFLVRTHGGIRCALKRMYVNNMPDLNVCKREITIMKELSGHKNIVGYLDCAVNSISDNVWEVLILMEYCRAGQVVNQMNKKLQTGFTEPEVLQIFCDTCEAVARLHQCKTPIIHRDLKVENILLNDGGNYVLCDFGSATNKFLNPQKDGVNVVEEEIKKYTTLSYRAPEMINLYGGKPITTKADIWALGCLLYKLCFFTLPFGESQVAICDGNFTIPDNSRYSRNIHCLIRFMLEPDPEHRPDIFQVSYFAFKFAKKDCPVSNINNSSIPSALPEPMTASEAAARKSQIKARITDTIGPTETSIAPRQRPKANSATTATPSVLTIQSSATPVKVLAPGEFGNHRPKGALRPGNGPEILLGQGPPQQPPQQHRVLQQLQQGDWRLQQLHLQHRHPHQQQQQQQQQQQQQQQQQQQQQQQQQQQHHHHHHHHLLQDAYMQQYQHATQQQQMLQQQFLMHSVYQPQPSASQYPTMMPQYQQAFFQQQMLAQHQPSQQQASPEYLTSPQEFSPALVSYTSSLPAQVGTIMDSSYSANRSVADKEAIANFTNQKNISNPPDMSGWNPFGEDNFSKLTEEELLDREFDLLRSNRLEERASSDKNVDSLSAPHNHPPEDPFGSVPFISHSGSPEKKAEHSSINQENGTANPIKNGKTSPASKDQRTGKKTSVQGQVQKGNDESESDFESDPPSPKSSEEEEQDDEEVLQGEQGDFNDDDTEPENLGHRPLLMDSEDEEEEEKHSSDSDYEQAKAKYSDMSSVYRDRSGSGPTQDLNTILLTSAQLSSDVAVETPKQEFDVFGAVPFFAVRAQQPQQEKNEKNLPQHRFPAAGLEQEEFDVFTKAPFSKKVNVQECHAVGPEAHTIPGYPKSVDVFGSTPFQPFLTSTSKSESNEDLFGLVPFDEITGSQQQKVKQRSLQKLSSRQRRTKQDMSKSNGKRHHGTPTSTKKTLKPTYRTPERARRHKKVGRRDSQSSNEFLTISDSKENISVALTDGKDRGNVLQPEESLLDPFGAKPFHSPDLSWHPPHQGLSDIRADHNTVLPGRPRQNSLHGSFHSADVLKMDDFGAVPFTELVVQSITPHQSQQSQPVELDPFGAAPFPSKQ
T1 sequence (Q2M2I8 whole entry): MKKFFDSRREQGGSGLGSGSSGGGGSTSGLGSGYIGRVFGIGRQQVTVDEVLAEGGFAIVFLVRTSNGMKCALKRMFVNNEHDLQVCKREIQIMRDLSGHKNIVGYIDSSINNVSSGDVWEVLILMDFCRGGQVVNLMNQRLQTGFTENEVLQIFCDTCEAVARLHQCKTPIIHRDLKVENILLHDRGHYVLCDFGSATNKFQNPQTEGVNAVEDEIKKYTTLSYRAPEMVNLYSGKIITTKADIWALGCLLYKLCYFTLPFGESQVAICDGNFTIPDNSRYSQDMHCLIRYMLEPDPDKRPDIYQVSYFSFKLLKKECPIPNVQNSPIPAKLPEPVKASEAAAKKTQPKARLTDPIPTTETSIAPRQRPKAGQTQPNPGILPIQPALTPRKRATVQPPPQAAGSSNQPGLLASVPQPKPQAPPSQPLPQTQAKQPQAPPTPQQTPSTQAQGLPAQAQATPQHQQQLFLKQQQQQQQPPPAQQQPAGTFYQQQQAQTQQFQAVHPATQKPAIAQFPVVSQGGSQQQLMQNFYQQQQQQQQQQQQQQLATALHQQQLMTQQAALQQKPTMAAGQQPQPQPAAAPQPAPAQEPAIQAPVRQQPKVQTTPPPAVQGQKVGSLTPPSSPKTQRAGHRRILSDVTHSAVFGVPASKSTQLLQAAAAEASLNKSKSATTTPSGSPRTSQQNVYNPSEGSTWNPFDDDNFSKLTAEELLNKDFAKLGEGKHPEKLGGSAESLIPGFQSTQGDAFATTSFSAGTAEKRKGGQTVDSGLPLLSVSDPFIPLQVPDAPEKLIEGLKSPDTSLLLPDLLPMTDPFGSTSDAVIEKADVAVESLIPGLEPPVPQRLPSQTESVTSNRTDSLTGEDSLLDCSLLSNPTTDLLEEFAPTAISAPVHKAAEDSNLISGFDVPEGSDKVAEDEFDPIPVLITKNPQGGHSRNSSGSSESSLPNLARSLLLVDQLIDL
T6 sequence (P10721 26-976 D816V): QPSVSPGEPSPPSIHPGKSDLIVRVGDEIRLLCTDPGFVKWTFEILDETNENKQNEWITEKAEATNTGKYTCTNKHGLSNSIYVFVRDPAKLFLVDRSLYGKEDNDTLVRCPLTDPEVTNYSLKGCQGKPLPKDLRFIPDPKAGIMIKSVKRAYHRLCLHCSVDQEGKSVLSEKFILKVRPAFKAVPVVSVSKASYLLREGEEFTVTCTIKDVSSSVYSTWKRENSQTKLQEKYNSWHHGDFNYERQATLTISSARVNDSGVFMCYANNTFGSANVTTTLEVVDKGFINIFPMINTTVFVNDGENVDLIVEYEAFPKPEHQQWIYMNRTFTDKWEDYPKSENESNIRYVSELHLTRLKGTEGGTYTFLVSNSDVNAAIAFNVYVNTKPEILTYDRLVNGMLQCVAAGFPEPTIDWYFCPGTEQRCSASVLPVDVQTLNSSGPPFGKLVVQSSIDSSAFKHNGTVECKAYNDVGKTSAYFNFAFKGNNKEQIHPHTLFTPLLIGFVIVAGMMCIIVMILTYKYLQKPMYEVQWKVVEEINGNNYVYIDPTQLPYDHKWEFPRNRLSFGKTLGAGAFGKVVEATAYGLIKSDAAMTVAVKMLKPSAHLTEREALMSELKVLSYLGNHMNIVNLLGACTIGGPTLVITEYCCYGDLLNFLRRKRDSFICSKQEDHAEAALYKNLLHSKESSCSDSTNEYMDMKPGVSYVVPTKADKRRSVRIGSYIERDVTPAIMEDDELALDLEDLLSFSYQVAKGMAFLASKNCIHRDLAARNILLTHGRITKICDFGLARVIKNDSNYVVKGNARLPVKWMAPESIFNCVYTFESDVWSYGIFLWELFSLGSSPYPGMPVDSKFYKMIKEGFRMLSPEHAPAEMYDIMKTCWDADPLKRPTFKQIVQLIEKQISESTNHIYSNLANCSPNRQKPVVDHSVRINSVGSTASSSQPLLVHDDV
T7 sequence (Q13882 whole entry): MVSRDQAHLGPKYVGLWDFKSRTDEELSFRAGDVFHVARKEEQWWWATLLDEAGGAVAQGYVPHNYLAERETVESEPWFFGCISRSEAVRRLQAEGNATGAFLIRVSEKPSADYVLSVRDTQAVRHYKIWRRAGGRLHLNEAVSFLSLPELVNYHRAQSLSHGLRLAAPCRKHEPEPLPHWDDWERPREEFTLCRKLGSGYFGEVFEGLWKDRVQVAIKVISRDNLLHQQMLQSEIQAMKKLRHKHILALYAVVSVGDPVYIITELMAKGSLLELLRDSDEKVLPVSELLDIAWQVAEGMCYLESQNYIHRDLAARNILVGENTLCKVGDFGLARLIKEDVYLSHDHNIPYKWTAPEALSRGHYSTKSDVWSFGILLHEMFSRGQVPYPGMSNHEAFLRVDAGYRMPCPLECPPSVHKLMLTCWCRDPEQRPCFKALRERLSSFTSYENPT

| Structure (SMILES) | remaining binding at 1 µM (panel of 468 kinases [1]) | remaining binding at 1 µM (panel of 468 kinases [2]) | remaining binding at 1 µM (panel of 468 kinases [3]) | remaining binding at 1 µM (panel of 468 kinases [4]) | remaining binding at 1 µM (panel of 468 kinases [5]) | remaining binding at 1 µM (panel of 468 kinases [6]) | remaining binding at 1 µM (panel of 468 kinases [7]) | remaining binding at 1 µM (panel of 468 kinases [8]) | remaining binding at 1 µM (panel of 468 kinases [9]) |
| --- | --- | --- | --- | --- | --- | --- | --- | --- | --- |
| CNc1nc(Nc2ccc(S(=O)(=O)N3CCC(N4CCOCC4)CC3)cc2OC)nc2[nH]cc(Cl)c12 [Compound 12, 5-chloro-N2-(2-methoxy-4-((4-morpholinopiperidin-1-yl)sulfonyl)phenyl)-N4-methyl-7H-pyrrolo[2,3-d]pyrimidine-2,4-diamine] | 100% | 91% | 100% | 96% | 100% | 100% | 100% | 100% | 100% |
| CNc1nc(Nc2ccc(C(=O)N3CCC(N4CCOCC4)CC3)c3c2OCO3)nc2[nH]cc(Cl)c12 [Compound 75, (7-((5-chloro-4-(methylamino)-7H-pyrrolo[2,3-d]pyrimidin-2-yl)amino)benzo[d][1,3]dioxol-4-yl)(4-morpholinopiperidin-1-yl)methanone] | 13% | 87% | 100% | 40% | 100% | 98% | 99% | 100% | 100% |
| CNc1nc(Nc2ccc(P3(=O)CCN(C4CCOCC4)CC3)cc2OC)nc2[nH]cc(Cl)c12 [Compound 77, 4-(4-((5-chloro-4-(methylamino)-7H-pyrrolo[2,3-d]pyrimidin-2-yl)amino)-3-methoxyphenyl)-1-(tetrahydro-2H-pyran-4-yl)-1,4-azaphosphinane 4-oxide] | 99% | 50% | 100% | 91% | 99% | 100% | 94% | 100% | 100% |
